# Laboratory results as given in US4426524A, “Heterocyclic substituted benzyl alcohol, insecticidal ester derivatives, and intermediates” (priority 1982, dated 1984).
# Legend:
# pea aphid = test: Foliar application, pea aphid; type: in vivo; conditions: Acyrthosiphon pisum, PA, foliar, 48 hours, read-out: Foliar % Kill (ppm)
# Experimental: (§1) Foliar Application: The activity of some of the compounds of the invention against various test species selected from pea aphid (Acyrthosiphon pisum), twospotted spider mite (Tetranychus urticae), southern armyworm (Spodoptera eridania), Mexican bean beetle (Epilachna varivestis), and cabbage looper (Tricoplusia ni) was determined by foliar application of the test compound. The test materials were formulated as aqueous solutions containing 10% acetone and 0.25% acetylphenoxypolyethoxyethanol. Activity against pea aphid was determined on English fava bean plants the leaves of which were sprayed to runoff with various concentrations of test solution prior to infestation with adult aphids. Activity against twospotted spider mite was evaluated on pinto bean plants whose leaves were sprayed to runoff with various concentrations of test solution after infestation with adult mites. Activity against the remaining species was evaluated on pinto bean plants whose leaves were sprayed to runoff with various concentrations of test solution before infestation with the appropriate immature insects. Mortality was read approximately 48 hours after treatment.
# southern armyworm [1] = test: Topical application, southern armyworm; type: in vivo, Spodoptera eridania; conditions: SAW; for Topical % Kill @ 5000 ng/insect: 24 hours
# Experimental: (§2) Topical Application: The compounds of this invention were tested for insecticidal activity against various insect species selected from southern armyworm (Spodoptera eridania), Mexican bean beetle, (Epilachna varivestis), milkweed bug (Oncopeltus fasciatus), and cabbage looper (Tricoplusia ni) by applying to the second or third dorsal thoracic segment of each larvae a one microliter droplet containing 5 mg/mL of test compound in acetone (5000 ng/insect). The test was allowed to stand 24 hours after application and was then read to determine the percent kill.
# (§3) To determine the LD50 of the compounds, the topical application test was repeated by applying various amounts of toxicant. Also included among the species tested against for this determination were tobacco budworm (Heliothis virescens), beet armyworm (Spodoptera exigua), and boll weevil (Anthonomus grandis).
# twospotted spider mite = test: Foliar application, twospotted spider mite; type: in vivo; conditions: Tetranychus urticae, TSM, foliar, 48 hours, read-out: Foliar % Kill (ppm)
# Experimental: as §1
# cabbage looper [2] = test: Topical application, cabbage looper; type: in vivo, Tricoplusia ni; conditions: CL
# Experimental: as §2, §3
# Mexican bean beetle [3] = test: Topical application, Mexican bean beetle; type: in vivo, Epilachna varivestis; conditions: MBB; for Topical % Kill @ 5000 ng/insect: 24 hours
# Experimental: as §2, §3
# milkweed bug [4] = test: Topical application, milkweed bug; type: in vivo, Oncopeltus fasciatus; conditions: MWB; for Topical % Kill @ 5000 ng/insect: 24 hours
# Experimental: as §2, §3
# beet armyworm = test: Topical application, beet armyworm; type: in vivo, Spodoptera exigua; conditions: BAW
# Experimental: as §2, §3
# tobacco budworm = test: Topical application, tobacco budworm; type: in vivo, Heliothis virescens; conditions: TBW
# Experimental: as §2, §3
# boll weevil = test: Topical application, boll weevil; type: in vivo, Anthonomus grandis; conditions: BW
# Experimental: as §2, §3
# milkweed bug [5] = test: Foliar application, milkweed bug; type: in vivo; conditions: Oncopeltus fasciatus, MWB, 48 hours, read-out: Foliar % Kill (ppm)
# southern armyworm [6] = test: Foliar application, southern armyworm; type: in vivo; conditions: Spodoptera eridania, SAW, foliar, 48 hours, read-out: Foliar % Kill (ppm)
# Experimental: as §1
# cabbage looper [7] = test: Foliar application, cabbage looper; type: in vivo, Tricoplusia ni; conditions: Trichoplusia ni, CL, 48 hours, read-out: Foliar % Kill (ppm)
# Experimental: as §1
# Mexican bean beetle [8] = test: Foliar application, Mexican bean beetle; type: in vivo; conditions: Epilachna varivestis, MBB, foliar, 48 hours, read-out: Foliar % Kill (ppm)
# Experimental: as §1
Structure (SMILES),mortality at 500 ppm (pea aphid),Topical LD50 (southern armyworm [1]),Topical % Kill @ 5000 ng/insect (southern armyworm [1]),mortality at 500 ppm (twospotted spider mite),Topical LD50 (cabbage looper [2]),Topical LD50 (Mexican bean beetle [3]),Topical % Kill @ 5000 ng/insect (Mexican bean beetle [3]),Topical LD50 (milkweed bug [4]),Topical % Kill @ 5000 ng/insect (milkweed bug [4]),mortality at 512 ppm (pea aphid),Topical LD50 (tobacco budworm),mortality at 512 ppm (twospotted spider mite),Topical LD50 (boll weevil),mortality at 512 ppm (southern armyworm [6]),mortality at 512 ppm (Mexican bean beetle [8]),other results
"CC1(C)[C@H](C=C(Cl)Cl)[C@@H]1C(=O)OCc1cccc(-c2ccsc2)c1 (relative stereo) [d, 3-(3-thienyl)phenylmethyl cis-3-(2,2-dichloroethenyl)-2,2-dimethylcyclopropanecarboxylate]",100%,57 ng/insect,100%,100%,2408 ng/insect,73 ng/insect,100%,1137 ng/insect,95%,–,–,–,–,–,–,Topical LD50 (beet armyworm): 3010 ng/insect
"Cc1c(COC(=O)[C@H]2[C@@H](C=C(Cl)C(F)(F)F)C2(C)C)cccc1-c1cccs1 (relative stereo) [e, [2-methyl-3-(2-thienyl)phenyl]-methyl cis-3-(2-chloro-3,3,3-trifluoro-1-propenyl)-2,2-dimethylcyclopropanecarboxylate]",–,23 ng/insect,100%,–,74 ng/insect,7 ng/insect,100%,72 ng/insect,100%,100%,43 ng/insect,100%,11 ng/insect,100%,–,mortality at 512 ppm (milkweed bug [5]): 100%; mortality at 24 ppm (cabbage looper [7]; 24 ppm): 95%
"Cc1c(COC(=O)[C@H]2[C@H](C=C(Cl)Cl)C2(C)C)cccc1-c1cccs1 (relative stereo) [f, [2-methyl-3-(2-thienyl)phenyl]methyl trans-3-(2,2-dichloroethenyl)-2,2-dimethylcyclopropanecarboxylate]",–,155 ng/insect,–,–,–,–,–,238 ng/insect,100%,100%,–,71%,–,100%,100%,mortality at 120 ppm (cabbage looper [7]; 120 ppm): 100%
"Cc1c(COC(=O)[C@H]2[C@@H](C=C(Cl)Cl)C2(C)C)cccc1-c1cccs1 (relative stereo) [g, [2-methyl-3-(2-thienyl)phenyl]methyl cis-3-(2,2-dichloroethenyl)-2,2-dimethylcyclopropanecarboxylate]",–,51 ng/insect,100%,–,0.5 ng/insect,8 ng/insect,–,234 ng/insect,100%,100%,107 ng/insect,–,21 ng/insect,100%,100%,mortality at 64 ppm (twospotted spider mite; 64 ppm): 0%; mortality at 80 ppm (cabbage looper [7]; 80 ppm): 100%
"Cc1c(COC(=O)[C@H]2[C@@H](C=C(Br)Br)C2(C)C)cccc1-c1cccs1 (relative stereo) [i, [2-methyl-3-(2-thienyl)phenyl]-methyl cis-3-(2,2-dibromoethenyl)-2,2-dimethylcyclopropanecarboxylate]",100%,55 ng/insect,100%,90%,371 ng/insect,20 ng/insect,100%,132 ng/insect,100%,–,177 ng/insect,–,–,–,–,mortality at 16 ppm (southern armyworm [6]; 16 ppm): 95%; mortality at 32 ppm (Mexican bean beetle [8]; 32 ppm): 90%; mortality at 32 ppm (cabbage looper [7]; 32 ppm): 70%
"Cc1c(COC(=O)[C@@H]2[C@H](C=C(Cl)Cl)C2(C)C)cccc1-c1cccs1 [h, [2-methyl-3-(2-thienyl)phenyl]-methyl 1R-cis-3-(2,2-dichloroethenyl)-2,2-dimethylcyclopropanecarboxylate]",100%,22 ng/insect,–,100%,136 ng/insect,9 ng/insect,100%,64 ng/insect,100%,–,38 ng/insect,–,–,–,–,mortality at 6.5 ppm (southern armyworm [6]; 6.5 ppm): 100%; mortality at 16 ppm (Mexican bean beetle [8]; 16 ppm): 95%; mortality at 16 ppm (cabbage looper [7]; 16 ppm): 90%
